“Also recorded” adds a separate entry of the source.
Experiments:
[1] = system: NIH 3T3 cells transfected with oncogenic Dbl; assay: Dbl-induced cellular transformation (focus-forming assays, growth in low serum, soft agar); type: cell-based; settings: focus formation / growth in low serum
Procedure: FIGS. 1A-E illustrate that the small molecule 968 inhibiting cellular transformation. […] Cells were fixed and stained with crystal violet for counting of foci. Right: 968 was serially diluted (10, 5, 2.5, and 1.25 μM) and evaluated for its ability to inhibit focus formation. […] After 6 days, the cells are counted. 100% represents the number of Dbl-transformed cells counted in the absence of 968 (27.5×10^4 cells). Data represent the average of 3 experiments (±s.d.). […] At the indicated times, the cells are counted. Data represent the average of 3 experiments (±s.d.).
FIGS. 2A-G illustrate effects of 968 on the transforming activity of constitutively active Rho GTPases and human breast cancer cells. […] Cells are scored after 14 days and plotted as the percentage of the total number of colonies greater than […] in diameter. Data represent the average of 3 experiments (±s.d.). […] Data represent the average of 3 experiments (±s.d.). […] Data represent the average of 3 experiments (±s.d.). […] After 24 hours at 37° C. the migratory cells are fixed, stained with GIEMSA, and counted. Data represent the average of 3 experiments (±s.d.). […] Data represent the average of 3 experiments (±s.d.). […] Data represent the average of 3 experiments (±s.d.). […] Data represent the average of 3 experiments (±s.d.).
FIGS. 5A-C illustrate comparative abilities of 968 and other benzo[a]phenanthrldinones to inhibit the transforming activity of oncogenic Dbl and H-Ras. […] Histograms show the relative levels of Dbl-induced focus formation for the different treatments, compared to Dbl-induced focus formation measured in the presence of DMSO (i.e. solvent control). Data represent the average of 3 experiments (mean±s.d.). […] Histograms show the relative levels of Ras(G12V)-induced focus formation measured for the different treatments, compared to Ras(G12V)-induced focus formation measured in the presence of DMSO (solvent control). Data represent the average of 3 experiments (mean±s.d.). FIG. 5C NIH 3T3 cells stably expressing H-Ras(G12V) that are cultured in DMEM supplemented with 1% calf serum, with the indicated amounts of 968. After 6 days, cells are trypsinized and counted. 100% represents the number of cells counted in the absence of 968, i.e. 26×10^4 cells. Data represent the average of 3 experiments (mean±s.d.).

[2] = target: T1, E. coli-expressed mouse ortholog of human GAC (Mus musculus, UniProt D3Z7P3); assay: Recombinant glutaminase activity assay; type: biochemical
T1 construct: A plasmid encoding mouse GAC (residues 128-603) was cloned into the pET28a vector; His-tag (N, cleaved yes); made in house; host or cells: E. coli (pET28a)
T1 sequence (D3Z7P3 128-603 isoform D3Z7P3-2): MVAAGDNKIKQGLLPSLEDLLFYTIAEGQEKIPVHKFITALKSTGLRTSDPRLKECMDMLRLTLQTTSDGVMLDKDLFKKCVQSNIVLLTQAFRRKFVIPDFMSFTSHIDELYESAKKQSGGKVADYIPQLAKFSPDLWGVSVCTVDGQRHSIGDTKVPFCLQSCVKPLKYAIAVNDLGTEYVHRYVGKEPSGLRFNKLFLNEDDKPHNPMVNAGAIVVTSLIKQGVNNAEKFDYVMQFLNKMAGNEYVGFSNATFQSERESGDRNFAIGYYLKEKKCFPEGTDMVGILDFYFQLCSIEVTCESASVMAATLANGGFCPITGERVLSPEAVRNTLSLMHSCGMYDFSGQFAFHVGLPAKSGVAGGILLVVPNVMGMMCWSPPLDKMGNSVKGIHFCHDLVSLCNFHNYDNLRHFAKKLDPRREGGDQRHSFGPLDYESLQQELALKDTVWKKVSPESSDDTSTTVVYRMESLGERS
Procedure: (§1) 100%=620 moles of glutamine hydrolyzed per minute per mole of enzyme. Data represent the average of 3 experiments (±s.d.). […] Following precipitation of the beads and re-suspension, the samples are analyzed by Western blotting with anti-V5 antibody. […] Data represent the average of 3 experiments (±s.d.). […] Data represent the average of 3 experiments (±s.d.). […] Data represent the average of 3 experiments (±s.d.). FIG. 3E NIH 3T3 cells transiently expressing Dbl are assayed for focus formation in the presence of 10 μM 968 alone or together with […] dimethyl α-ketoglutarate. […] 100%=680 nM glutamine hydrolyzed per minute per 10^5 cells. Data are the average of 3 experiments (=s.d.). […] 100%=750 nM glutamine hydrolyzed per minute per 10^5 cells. Data represent the average of 3 experiments (±s.d.).
The activity of the E. coli-expressed recombinant mouse ortholog of human GAC are assayed in the presence of 0 (●), 10 (∇) or 20 (▪) μM 968 and inorganic phosphate in the form of dipotassium hydrogen phosphate. […] The data are plotted as GA activity as function of varying concentrations of glutamine or inorganic phosphate. The data are the average of 3 experiments and are plotted as mean±SEM.
Glutaminase activity assays were performed on recombinant enzyme as previously described (Kenny et al., “Bacterial Expression, Purification and Characterization of Rat Kidney-Type Mitochondrial Glutaminasc,” Protein Expr. Purif 31:140-148 (2003), which is hereby incorporated by reference in its entirety). A plasmid encoding mouse GAC (residues 128-603) was cloned into the pET28a vector and the protein was expressed with an N-terminal histidine (His)-tag. The tag was cleaved using thrombin and the protein was further purified by anion-exchange and gel-filtration chromatography. […] The reaction mixture was incubated at room temperature for 45 minutes and the absorbance at 340 nm was recorded for each sample against a water blank. The absorbance of the sample with just the cocktail mixture was subtracted from each reading to calculate the activity of the enzyme.

[3] = target: T2, V5-tagged GAC from Dbl-transformed NIH 3T3 cells (Mus musculus, UniProt D3Z7P3); assay: GA activity of immunoprecipitated V5-GAC; type: cell-based; settings: GAC isolated from Dbl cells, dephosphorylation conditions
T2 construct: expressed in transfected cells; host or cells: NIH 3T3 cells stably expressing oncogenic Dbl
T2 sequence (D3Z7P3 55-603 isoform D3Z7P3-2 limits assumed): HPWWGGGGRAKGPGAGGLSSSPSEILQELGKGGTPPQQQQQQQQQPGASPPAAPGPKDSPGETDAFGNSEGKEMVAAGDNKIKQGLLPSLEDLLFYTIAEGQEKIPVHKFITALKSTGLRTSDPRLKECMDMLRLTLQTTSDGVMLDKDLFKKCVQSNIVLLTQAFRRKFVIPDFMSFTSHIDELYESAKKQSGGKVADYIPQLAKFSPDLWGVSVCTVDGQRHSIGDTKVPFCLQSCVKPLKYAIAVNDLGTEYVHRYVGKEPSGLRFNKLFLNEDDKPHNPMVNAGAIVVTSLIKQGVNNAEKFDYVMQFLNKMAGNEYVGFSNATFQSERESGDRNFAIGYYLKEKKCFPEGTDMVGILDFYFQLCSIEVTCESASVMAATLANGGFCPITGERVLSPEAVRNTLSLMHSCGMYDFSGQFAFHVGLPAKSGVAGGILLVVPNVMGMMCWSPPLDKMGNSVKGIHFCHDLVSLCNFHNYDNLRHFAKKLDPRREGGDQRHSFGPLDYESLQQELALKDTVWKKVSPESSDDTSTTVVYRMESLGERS
Excerpt: (§2) FIGS. 4A-E illustrate the role of glutaminase C activity in cellular transformation. […] Data represent the average of 3 experiments (±s.d.). […] Data represent the average of 3 experiments (±s.d.). […] 100% represents the activity measured in untreated Dbl-transformed cells. The data represent the average of 2 experiments. […] 100% represents the activity measured in untreated SKBR3 cells. The data represent the average of 2 experiments. […] Data represent the average of 3 experiments (±s.d.).
NIH 3T3 cells or NIH 3T3 cells stably expressing the Dbl oncogene, were transiently transfected with DNA encoding a V5-tagged GAC. The cells were then harvested and the ectopically expressed GAC was isolated by immunoprecipitation via the V5 tag. The VS-GAC obtained from one of the Dbl samples was additionally treated with alkaline phosphtase under dephosphorylation conditions. The samples were then assayed for glutaminase activity in the absence of phosphate (top panel) and the relative expression levels of VS-GAC was determined by Western blotting using an anit-V5 antibody (bottom panel).
NIH 3T3 cells stably expressing oncogenic Dbl were transiently transfected with DNA encoding VS-tagged GAC, and cells were treated with either 968 or BA-968 ([…]) as indicated for 48 hours. The cells were then harvested and the ectopically expressed GAC was isolated by immunoprecipitation via the V5 tag. The samples were then assayed for glutaminase activity in the absence of phosphate (top panel) and the relative expression levels of VS-GAC was determined by Western blotting using an anti-V5 antibody (bottom panel).

[4] = system: GA activity in Dbl- and Cdc42(F28L)-expressing NIH 3T3 cells; assay: GA activity in mitochondrial fractions of transformed fibroblasts; type: cell-based; settings: Dbl-transformed cells, 2 μM
Procedure: as §1, §2
FIGS. 11A-E illustrate the effects of different treatments on GA activity. […] The addition of Pi stimulated the GA activity in control 3T3 cells, Dbl-expressing cells, and Cdc42(F28L)-expressing cells by ˜6-fold, 2-fold, and 3-fold, respectively. 100% represents the Pi-stimulated activity measured for Dbl-transformed cells that are not treated with 968. Data is the average of 3 experiments (±s.d.). […] The addition of Pi stimulated the GA activity of HMECs, MDA-MB231 cells, and SKBR3 cells by ˜5-fold, 2-fold, and 1.4-fold, respectively. 100% represents the Pi-stimulated activity for SKBR3 cells that were not treated with 968. Data are the average of 3 experiments (±s.d.). […] Mitochondrial fractions are prepared from equal numbers of cells and assayed for GA activity in the presence or absence of 133 mM Pi. The data are plotted as the percentage of GA activity measured for untreated SKBR3 cells and represent the average of 2 experiments. […] 100% represents the P1-stimulated activity measured for untreateDbl-transformed cells. The data represent the average of 2 experiments. […] 100% represents the Pi-stimulated activity for untreated SKBR3 cells. The data represent the average of 2 experiments.
Mitochondrial preparations were obtained using the mitochondria isolation kit from QIAGEN (Cat #37612). A suspension containing 2×10^7 cells was transferred into a 50 ml conical tube and centrifuged at 500×g for 10 minutes at 4° C. […]

[5] = system: GA activity in SKBR3 cells; assay: GA activity in mitochondrial fractions; type: cell-based, human; settings: 2 μM
Procedure: as §1, §2
FIGS. 11A-E illustrate the effects of different treatments on GA activity. […] The addition of Pi stimulated the GA activity in control 3T3 cells, Dbl-expressing cells, and Cdc42(F28L)-expressing cells by ˜6-fold, 2-fold, and 3-fold, respectively. 100% represents the Pi-stimulated activity measured for Dbl-transformed cells that are not treated with 968. Data is the average of 3 experiments (±s.d.). […] The addition of Pi stimulated the GA activity of HMECs, MDA-MB231 cells, and SKBR3 cells by ˜5-fold, 2-fold, and 1.4-fold, respectively. […] The data are plotted as the percentage of GA activity measured for untreated SKBR3 cells and represent the average of 2 experiments. […] 100% represents the P1-stimulated activity measured for untreateDbl-transformed cells. […]

Compound: CC1(C)CC(=O)C2=C(C1)c1c(ccc3ccccc13)NC2c1cccc(Br)c1 (centres unmarked) [Compound 335]
- inhibition of Dbl-induced transformation [1]: little or no inhibition; also recorded: less effective
- inhibition of enzymatic activity of purified GAC [2]: little ability to inhibit enzyme activity

Compound: CN(C)c1ccc(C2Nc3ccc4ccccc4c3C3=C2C(=O)CC(C)(C)C3)cc1 (centres unmarked) [Compound 384]
- inhibition of Dbl-induced transformation [1]: little or no inhibition

Compound: alkaline phosphatase [reference compound]
- reduction of basal glutaminase (phosphate independent) activity [3]: 75%

Compound: Cc1ccc(S(=O)(=O)/C=C/C#N)cc1 [BAY 11-7082, reference compound]
- direct stimulation of the enzyme by phosphate [4]: little or no effect
- basal GA activity ([4]; 2 days): significantly reduces
- basal GA activity [5]: significantly reduces
- direct stimulation of the enzyme by phosphate [5]: little or no effect
